Source: US9988361B2, “Anti-enterovirus 71 thiadiazolidine derivative” (JIANGSU KANION PHARMACEUTICAL CO. LTD, priority 2014, dated 2018)
Blank lines part the entries; values can stand above or below the compound they belong to.

Tested on: EV71 virus strain Shenzhen/120F1/09
Test: EV71 in-vitro cytopathic effect (CPE) test
Assay type: cell-based, RD cells of human rhabdomyoma
Details: Enterovirus A, 72 h; RD cells, EV71 100 TCID50, 3 days, CCK8 readout; read-out: EC50 by EC71 CPE test, EV71
Protocol: Test of EV71 In-Vitro Cytopathic Effect (CPE) To test the in-vitro antiviral activity and cytotoxicity of a compound to HFMD virus EV71 by means of cytopathic effect (CPE) test. […] Cell line: RD cells of human rhabdomyoma • 3. Cell culture media: DMEM medium added with 10% serum, Penicillin/Streptomycin and L-[…]×) • 4. […] Cell inoculation: digest off the RD cells from the attached state, then dilute them with culture medium to a density of 80000/ml and inoculate 100 μl into the micro wells the 96-well plate. • 2. Dilution of compound: • Step 1: prepare the dry powder of a compound to test into a 10 mM solution in DMSO. Then dilute the compound by three times to eight concentration points. Dilute the reference compounds with the same method. • Step 2: further dilute the diluted solution of the compound in DMSO with cell culture medium. Add 10 μl DMSO solution for each well into 240 μl culture medium. • 3. Add the diluted compound solution by 50 μl each well into the 96-well plate inoculated with cells (double holes, final concentration of DMSO is 1%). • 4. Dilution of virus: dilute EV71 virus solution by 10000 times to a concentration of 100 TCID50/50 μl/. Add the diluted virus solution by 50 μl each well into the 96-well plate. Prepare another 96-well plate to replace the virus with culture medium and similarly inoculate the cells. Add the compound to test the toxicity of compound on cells. • 5. Cultivate the 96-well plate 3 days at the conditions of 37° C. and 5% CO2. • 6. EC50 and CC50 tests: add the cellular activity test reagent CCK8 into the micro-wells by 20 μl/well. Use ELIASA to read the absorbancy at the wavelength of 450 nm and 630 nm. • 7.

Compound: O=S1(=O)N(CCCCCOc2ccc(-c3ccc(Cl)cc3)cc2)CCN1c1ccncc1 [Embodiment 6, 2-(5-((4′-chloro-[1,1′-biphenyl]-4-yl)oxy)pentyl)-5-(pyridin-4-yl)-1,2,5-thiadiazolidine-1,1-dioxide]
- EC50: 50 to 100 nM

Compound: CCO/N=C/c1ccc(OCCCCCN2CCN(c3ccncc3)S2(=O)=O)cc1 [Embodiment 7]
- EC50: < 50 nM

Compound: CCO/N=C1\CCc2cc(OCCCCCN3CCN(c4ccncc4)S3(=O)=O)ccc21 [Embodiment 8]
- EC50: 50 to 100 nM

Compound: CCc1nc(-c2ccc(OCCCCCN3CCN(c4ccncc4)S3(=O)=O)cc2)no1 [Embodiment 10, 2-(5-(4-(5-ethyl-1,2,4-oxadiazol-3-yl)-phenoxy)-pentyl)-5-(pyridin-4-yl)-1,2,5-thiadiazolidine-1,1-dioxide]
- EC50: 50 to 100 nM

Compound: CCn1nnc(-c2ccc(OCCCCCN3CCN(c4ccncc4)S3(=O)=O)cc2)n1 [Embodiment 11, 2-(5-(4-(2-ethyl-2H-tetrazol-5-yl)-phenoxy)pentyl)-5-(pyridin-4-yl)-1,2,5-thiadiazolidine-1,1-dioxide]
- EC50: 50 to 100 nM

Compound: CCOc1noc2cc(OCCCCCN3CCN(c4ccncc4)S3(=O)=O)ccc12 [Embodiment 12, 2-(5-((3-ethoxy-benzo[d]isoxazole-6-yl)-oxy)pentyl)-5-(pyridin-4-yl)-1,2,5-thiadiazolidine-1,1-dioxide]
- EC50: < 50 nM

Compound: O=S1(=O)N(CCOCCOc2ccc(-c3ccc(Cl)cc3)cc2)CCN1c1ccncc1 [Embodiment 13, 2-(2-(2-((4′-chloro-[1,1′-biphenyl]-4-yl)oxy)ethoxy)ethyl)-5-(pyridin-4-yl)-1,2,5-thiadiazolidine-1,1-dioxide]
- EC50: 100 to 500 nM

Compound: CCO/N=C/c1ccc(OCCC(C)CCN2CCN(c3ccnc(N)c3)S2(=O)=O)cc1 (centres unmarked) [Embodiment 17, (E)-4-((5-(5-(2-amino-pyridin-4-yl)-1,1-dioxo-1,2,5-thiadiazolidine-2-yl)-3-methyl-pentyl)-oxy)-benzaldehyde-O-ethylketoxime]
- EC50: < 50 nM

Compound: CCO/N=C/c1ccc(OCCCCCCN2CCN(c3ccnc(N)c3)S2(=O)=O)cc1 [Embodiment 25, (E)-4-((6-(5-(2-aminopyridin-4-yl)-1,1-dioxide-1,2,5-thiadiazolidine-2-yl)-hexyl)-oxy)-benzaldehyde-O-ethyl ketoxime]
- EC50: < 50 nM

Compound: CCO/N=C/c1ccc(OCCCCCN2CCN(c3ccnc(C)c3)S2(=O)=O)cc1 [Embodiment 32, (E)-4-((5-(5-(2-methylpyridin-4-yl)-1,1-dioxide-1,2,5-thiadiazol-2-yl)-pentyl)-oxy)-benzaldehyde-O-ethyl ketoxime]
- EC50: < 50 nM

Compound: CCO/N=C/c1ccc(OCCCCCN2CCN(c3ccc(C)nn3)S2(=O)=O)cc1 [Embodiment 33, (E)-4-((5-(5-(6-methyl-pyridazin-3-yl)-1,1-dioxide-1,2,5-thiadiazolidine-2-yl)-pentyl)-oxy)-benzaldehyde-O-ethyl ketoxime]
- EC50: 100 to 500 nM

Compound: CCO/N=C/c1ccc(OCCCCCN2CCN(c3ccc(Cl)nn3)S2(=O)=O)cc1 [Embodiment 34, (E)-4-((5-(5-(6-chloro-pyridazin-3-yl)-1,1-dioxide-1,2,5-thiadiazolidine-2-yl)-pentyl)-oxy)-benzaldehyde-O-ethyl ketoxime]
- EC50: 500 to 1000 nM

Compound: CCO/N=C/c1ccc(OCCCCCN2CCN(c3nccs3)S2(=O)=O)cc1 [Embodiment 35, (E)-4-((5-(1,1-dioxide-5-(thiazol-2-yl)-1,2,5-thiadiazolidine-2-yl)-pentyl)-oxy)-benzaldehyde-O-ethyl ketoxime]
- EC50: 100 to 500 nM

Compound: CCO/N=C/c1ccc(OCCCCCN2CCN(c3cc(N)ncn3)S2(=O)=O)cc1 [Embodiment 38, (E)-4-((5-(5-(6-amino-pyrimidin-4-yl)-1,1-dioxide-1,2,5-thiadiazolidine-2-yl)-pentyl)-oxy)-benzaldehyde-O-ethyl ketoxime]
- EC50: < 50 nM

Compound: CCO/N=C/c1ccc(OCCCCCN2CCN(c3ccnc(F)c3)S2(=O)=O)cc1 [Embodiment 39, (E)-4-((5-(5-(2-Fluoro-4-yl)-1,1-dioxide-1,2,5-thiadiazolidine-2-yl)-pentyl)-oxy)-benzaldehyde-O-ethyl ketoxime]
- EC50: 50 to 100 nM

Compound: CCO/N=C/c1ccc(OCCCCCN2CCN(c3ccnc(NCCO)c3)S2(=O)=O)cc1 [Embodiment 40, (E)-4-((5-(5-(2-((2-hydroxyethyl)-amino)-pyridin-4-yl)-1,1-dioxide-1,2,5-thiadiazolidine-2-yl)-pentyl)-oxy)-benzaldehyde-O-ethyl ketoxime]
- EC50: < 50 nM

Compound: CCO/N=C/c1ccc(OCCCCCN2CCN(c3ccnc(NC)c3)S2(=O)=O)cc1 [Embodiment 41, (E)-4-((5-(5-(2-(methylamino)-pyridin-4-yl)-1,1-dioxide-1,2,5-thiadiazolidine-2-yl)-pentyl)-oxy)-benzaldehyde-O-ethyl ketoxime]
- EC50: < 50 nM

Compound: CCO/N=C/c1ccc(OCCCCCN2CCN(c3ccnc(N4CCC4)c3)S2(=O)=O)cc1 [Embodiment 42, (E)-4-((5-(5-(2-(azetidin-1-yl)-pyridin-4-yl)-1,1-dioxide-1,2,5-thiadiazolidine-2-yl)-pentyl)-oxy)-benzaldehyde-O-ethyl ketoxime]
- EC50: 100 to 500 nM

Other lines, results leading:

- EC50: < 50 nM
Compound: CCO/N=C/c1ccc(OCCC(C)CCN2CCN(c3ccncc3)S2(=O)=O)cc1 (centres unmarked) [Embodiment 14, (E)-4-((5-(1,1-dioxo-5-(pyridin-4-yl)-1,2,5-thiadiazolidine-2-yl)-3-methyl-pentyl)-oxy)-benzaldehyde-O-ethyloxime]

- EC50: < 50 nM
Compound: CCOc1noc2cc(OCCC(C)CCN3CCN(c4ccncc4)S3(=O)=O)ccc12 (centres unmarked) [Embodiment 15, 2-(5-((3-ethoxy-benzo[d]isoxazole-6-yl)-oxy)-3-methyl-pentyl)-5-(pyridin-4-yl)-1,2,5-thiadiazolidine-1,1-dioxide]

- EC50: < 50 nM
Compound: Nc1cc(N2CCN(CCCCCOc3ccc(-c4ccc(Cl)cc4)cc3)S2(=O)=O)ccn1 [Embodiment 16, 2-(2-aminopyridine-4-yl)-5-(5-((4′-chloro-[1,1′-biphenyl]-4-yl)-oxy)-pentyl)-1,2,5-thiadiazolidine-1,1-dioxide]

- EC50: < 50 nM
Compound: CCOc1noc2cc(OCCCCCN3CCN(c4ccnc(NC)c4)S3(=O)=O)ccc12 [Embodiment 18, 2-(5-((3-ethoxy-benzo[d]isoxazol-6)-oxo)-pentyl)-5-(2-(methylamino)-pyridine-4)-1,2,5-thiadiazoline-1,1-dioxide]

- EC50: 100 to 500 nM
Compound: O=S1(=O)N(CCCCC2CCc3cc(-c4ccc(Cl)cc4)ccc3O2)CCN1c1ccncc1 (centres unmarked) [Embodiment 19, 2-(4-(6-(4-chlorophenyl)-chroman-2-yl)-butyl)-5-(pyridin-4-yl)-1,2,5-thiadiazolidine-1,1-dioxide]

- EC50: < 50 nM
Compound: CCO/N=C/c1ccc2c(c1)CCC(CCCCN1CCN(c3ccncc3)S1(=O)=O)O2 (centres unmarked) [Embodiment 21, (E)-2-(4-(1,1-dioxo-5-(pyridin-4-yl)-1,2,5-thiadiazolidine-2-yl)-butyl)-chroman-6-formaldehyde-O-ethyloxime]

- EC50: 500 to 1000 nM
Compound: Nc1cc(N2CCN(CCCCCOc3ccc(C=O)cc3)S2(=O)=O)ccn1 [Embodiment 24, 4-((5-(5-(2-aminopyridin-4-yl)-1,1-dioxide-1,2,5-thiadiazolidine-2-yl)-pentyl)-oxy)-benzaldehyde]

- EC50: 100 to 500 nM
Compound: CCO/N=C/c1ccc(OCCCCN2CCN(c3ccnc(N)c3)S2(=O)=O)cc1 [Embodiment 26]

- EC50: < 50 nM
Compound: CCn1nnc(-c2ccc(OCCCCCN3CCN(c4ccnc(N)c4)S3(=O)=O)cc2)n1 [Embodiment 27, 4-(5-(5-(4-(2-ethyl-tetrazol-5-yl)-phenoxy)-pentyl)-1,1-dioxide-1,2,5-thiadiazolidine-2-yl)-pyridin-2-amine]

- EC50: < 50 nM
Compound: CCOc1noc2cc(OCCCCCN3CCN(c4ccnc(N)c4)S3(=O)=O)ccc12 [Embodiment 28, 4-(5-(5-((3-ethoxy-1,2-benzoxazol-6-yl)-oxy)-pentyl)-1,1-dioxide-1,2,5-thiadiazolidine-2-yl)-pyridin-2-amine]

- EC50: < 50 nM
Compound: CCO/N=C1\CCc2cc(OCCC(C)(C)CCN3CCN(c4ccnc(N)c4)S3(=O)=O)ccc21 [Embodiment 30, (E)-2-(2-amino-pyridin-4-yl)-5-(5-((1-(ethoxy-imino)-2,3-dihydro-1H-inden-5-yl)-oxy)-3,3-dimethylpentyl)-1,2,5-thiadiazolidine-1,1-dioxide]

- EC50: 100 to 500 nM
Compound: CCO/N=C1\CCc2cc(OCCC(F)(F)CCN3CCN(c4ccnc(N)c4)S3(=O)=O)ccc21 [Embodiment 31, (E)-2-(2-amino-pyridin-4-yl)-5-(5-((1-(ethoxy-imino)-2,3-dihydro-1H-inden-5-yl)-oxy)-3,3-difluoropentyl)-1,2,5-thiadiazolidine-1,1-dioxide]

- EC50: < 50 nM
Compound: CCO/N=C/c1ccc(OCCCCCN2CCN(c3ccnc(NC(C)=O)c3)S2(=O)=O)cc1 [Embodiment 36, (E)-N-(4-(5-(5-(4-((ethoxy-imino)-methyl)-phenoxy)-pentyl)-1,1-dioxide-1,2,5-thiadiazolidine-2-yl)-pyridin-2-yl)-acetamide]

- EC50: 500 to 1000 nM
Compound: CCO/N=C/c1ccc(OCCCCCN2CCN(c3ccnc(C(=O)OC)c3)S2(=O)=O)cc1 [Embodiment 37]
